Data from paper PMC6478789, “A chemical toolbox for the study of bromodomains and epigenetic signaling” (Nature Communications, 2019).

Assays:
[1] = target: BRPF1 (Homo sapiens, UniProt P55201); test: Temperature shift assay (non-BRD reader domains); format: binding; settings: 10µM compound
Target sequence in this assay (P55201 1085-1168 limits assumed, species assumed): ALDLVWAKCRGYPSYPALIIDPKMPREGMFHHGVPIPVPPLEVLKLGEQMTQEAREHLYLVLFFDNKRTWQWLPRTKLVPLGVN

[2] = target: EP300 (Homo sapiens, UniProt Q09472); test: Histone acetyltransferase (HAT) activity assay; format: biochemical; settings: read-out: HATs Activity (%);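 further: selectivity screen of bromodomain probe compounds against histone acetyltransferases, with enzyme activity given in percent for compounds tested at 1 and 10 µM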
[3] = target: T1, HAT1 (Homo sapiens, UniProt O14929); test: Histone acetyltransferase (HAT) activity assay; format: biochemical; settings: read-out: HATs Activity (%);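 further: HAT selectivity screen of BRD probe compounds, enzyme activity in % measured with compound at 1 µM and 10 µM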
T1 sequence (O14929 1-419): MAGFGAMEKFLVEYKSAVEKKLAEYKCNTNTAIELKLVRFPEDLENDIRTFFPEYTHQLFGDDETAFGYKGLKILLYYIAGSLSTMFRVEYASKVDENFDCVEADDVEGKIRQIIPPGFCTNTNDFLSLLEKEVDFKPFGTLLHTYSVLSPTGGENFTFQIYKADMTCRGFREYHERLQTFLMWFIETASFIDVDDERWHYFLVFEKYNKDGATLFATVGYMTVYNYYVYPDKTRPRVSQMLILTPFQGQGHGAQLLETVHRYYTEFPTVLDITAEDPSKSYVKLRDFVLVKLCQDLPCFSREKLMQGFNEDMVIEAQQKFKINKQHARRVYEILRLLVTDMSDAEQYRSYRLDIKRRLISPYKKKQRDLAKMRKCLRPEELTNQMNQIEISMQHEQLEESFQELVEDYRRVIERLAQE

[4] = target: T2, MYST1 (Homo sapiens, UniProt Q9H7Z6); test: Histone acetyltransferase (HAT) activity assay; format: biochemical; settings: read-out: HATs Activity (%);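 further: selectivity screen across a panel of histone acetyltransferases, with compounds tested at 1 and 10 µM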
T2 sequence (Q9H7Z6 1-458): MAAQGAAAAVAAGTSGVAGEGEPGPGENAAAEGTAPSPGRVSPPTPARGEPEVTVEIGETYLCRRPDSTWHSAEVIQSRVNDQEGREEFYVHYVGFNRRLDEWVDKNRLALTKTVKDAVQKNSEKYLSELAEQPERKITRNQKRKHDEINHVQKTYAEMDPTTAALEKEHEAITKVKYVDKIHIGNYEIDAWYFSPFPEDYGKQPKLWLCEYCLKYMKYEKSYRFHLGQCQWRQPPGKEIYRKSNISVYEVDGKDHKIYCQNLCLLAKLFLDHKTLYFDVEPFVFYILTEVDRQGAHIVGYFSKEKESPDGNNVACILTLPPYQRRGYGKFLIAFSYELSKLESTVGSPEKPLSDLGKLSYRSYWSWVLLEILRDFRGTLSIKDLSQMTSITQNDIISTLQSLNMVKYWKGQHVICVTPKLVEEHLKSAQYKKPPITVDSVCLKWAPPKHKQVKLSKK

[5] = target: MYST3 (Homo sapiens, UniProt Q92794); test: Histone acetyltransferase (HAT) activity assay; format: biochemical; settings: read-out: HATs Activity (%);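 further: selectivity screen of bromodomain probe compounds across a panel of histone acetyltransferases, read out as enzyme activity in %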
[6] = target: GCN5L2 (Homo sapiens, UniProt Q92830); test: Histone acetyltransferase (HAT) activity assay; format: biochemical; settings: read-out: HATs Activity (%);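 further: selectivity screen of BRD probe compounds across a panel of histone acetyltransferases, HAT activity in % with compound at 1 or 10 µM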
[7] = target: T3, BAZ2B (Homo sapiens, UniProt Q9UIF8); test: BROMOscan ligand-binding assay; settings: KD, BROMOscan Gene Symbol BAZ2B
T3 sequence (Q9UIF8 2060-2164 limits assumed): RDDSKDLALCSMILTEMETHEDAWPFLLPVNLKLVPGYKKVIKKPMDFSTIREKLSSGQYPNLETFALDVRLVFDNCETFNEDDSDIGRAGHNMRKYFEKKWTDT
From the text: (§1) BROMOscan is a binding assay based on the well-known KINOMEscan technology. This assay measures the binding of a DNA-tagged bromodomain to an immobilized BRD ligand. If an inhibitor is present, it will compete with the bromodomain binding to the immobilized ligand, resulting in reduction of a quantitative PCR (qPCR) signal in a dose-dependent manner.

[8] = target: T4, BRD1 (Homo sapiens, UniProt O95696); test: BROMOscan ligand-binding assay
T4 sequence (O95696 562-666 limits assumed): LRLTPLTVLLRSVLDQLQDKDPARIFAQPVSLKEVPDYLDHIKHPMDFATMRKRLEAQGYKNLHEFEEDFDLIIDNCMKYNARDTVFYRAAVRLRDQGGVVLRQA
From the text: as §1

[9] = target: BRD2(1) (Homo sapiens, UniProt P25440); test: BROMOscan ligand-binding assay
From the text: as §1

[10] = target: BRD3(1) (Homo sapiens, UniProt Q15059); test: BROMOscan ligand-binding assay; settings: KD, BROMOscan Gene Symbol BRD3(1)
From the text: as §1

[11] = target: BRD3(2) (Homo sapiens, UniProt Q15059); test: BROMOscan ligand-binding assay; settings: KD, BROMOscan Gene Symbol BRD3(2)
From the text: as §1

[12] = target: BRD4(fl) (Homo sapiens, UniProt O60885); test: BROMOscan ligand-binding assay
From the text: as §1

[13] = target: BRD8(2) (Homo sapiens, UniProt Q9H0E9); test: BROMOscan ligand-binding assay
From the text: as §1

[14] = target: BRDT(1) (Homo sapiens, UniProt Q58F21); test: BROMOscan ligand-binding assay; settings: KD, BROMOscan Gene Symbol BRDT(1)
From the text: as §1

[15] = target: BRDT(1,2) (Homo sapiens, UniProt Q58F21); test: BROMOscan ligand-binding assay; settings: KD, BROMOscan Gene Symbol BRDT(1,2)
From the text: as §1

[16] = target: T5, BRPF1 (Homo sapiens, UniProt P55201); test: BROMOscan ligand-binding assay; settings: KD, BRPF1
T5 sequence (P55201 628-732 limits assumed): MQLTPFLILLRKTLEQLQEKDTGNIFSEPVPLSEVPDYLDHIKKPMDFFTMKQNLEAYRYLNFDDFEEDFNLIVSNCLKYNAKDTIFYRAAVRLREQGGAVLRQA
From the text: as §1

[17] = target: CECR2 (Homo sapiens, UniProt Q9BXF3); test: BROMOscan ligand-binding assay; settings: KD, CECR2
From the text: as §1

[18] = target: T6, EP300 (Homo sapiens, UniProt Q09472); test: BROMOscan ligand-binding assay; settings: KD, EP300
T6 sequence (Q09472 1049-1156 limits assumed): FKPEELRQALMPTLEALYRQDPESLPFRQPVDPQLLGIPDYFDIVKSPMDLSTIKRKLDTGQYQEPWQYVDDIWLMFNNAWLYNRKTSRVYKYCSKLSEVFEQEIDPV
From the text: as §1

[19] = target: FALZ (Homo sapiens, UniProt Q12830); test: BROMOscan ligand-binding assay; settings: KD, FALZ
From the text: as §1

[20] = target: PBRM1(5) (Homo sapiens, UniProt Q86U86); test: BROMOscan ligand-binding assay
From the text: as §1

[21] = target: WDR9(2) (Homo sapiens, UniProt Q9NSI6); test: BROMOscan ligand-binding assay; settings: KD, WDR9(2)
From the text: as §1

[22] = KD (BROMOscan), sheet prints no unit (nM)

Sequence of BRD8(2) (Q9H0E9 1099-1207 limits assumed): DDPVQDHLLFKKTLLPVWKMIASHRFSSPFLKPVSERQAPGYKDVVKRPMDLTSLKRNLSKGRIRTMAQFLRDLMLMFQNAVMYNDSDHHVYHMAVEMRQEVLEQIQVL
Sequence of GCN5L2 (Q92830 whole entry, species assumed): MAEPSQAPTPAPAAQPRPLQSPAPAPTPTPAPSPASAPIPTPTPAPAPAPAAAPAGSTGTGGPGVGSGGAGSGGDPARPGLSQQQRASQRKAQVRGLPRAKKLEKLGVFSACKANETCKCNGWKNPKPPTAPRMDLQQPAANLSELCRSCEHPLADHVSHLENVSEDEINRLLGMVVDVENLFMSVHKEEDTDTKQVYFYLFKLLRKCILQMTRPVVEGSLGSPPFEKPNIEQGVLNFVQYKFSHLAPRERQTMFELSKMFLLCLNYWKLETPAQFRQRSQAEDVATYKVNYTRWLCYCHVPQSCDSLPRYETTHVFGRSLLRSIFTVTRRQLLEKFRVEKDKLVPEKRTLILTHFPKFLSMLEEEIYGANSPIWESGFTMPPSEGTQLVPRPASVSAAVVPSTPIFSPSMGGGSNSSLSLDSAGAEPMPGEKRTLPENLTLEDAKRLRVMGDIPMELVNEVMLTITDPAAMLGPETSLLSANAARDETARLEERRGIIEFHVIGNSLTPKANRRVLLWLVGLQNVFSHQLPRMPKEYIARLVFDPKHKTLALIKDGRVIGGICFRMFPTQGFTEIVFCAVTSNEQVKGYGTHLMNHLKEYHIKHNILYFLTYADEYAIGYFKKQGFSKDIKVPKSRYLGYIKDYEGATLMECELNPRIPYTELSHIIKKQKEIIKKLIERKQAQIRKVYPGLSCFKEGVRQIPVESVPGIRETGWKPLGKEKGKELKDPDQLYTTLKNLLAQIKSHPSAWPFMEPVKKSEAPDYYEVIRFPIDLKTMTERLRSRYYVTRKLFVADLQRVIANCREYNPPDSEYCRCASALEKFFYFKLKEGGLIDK
Sequence of MYST3 (Q92794 whole entry, species assumed): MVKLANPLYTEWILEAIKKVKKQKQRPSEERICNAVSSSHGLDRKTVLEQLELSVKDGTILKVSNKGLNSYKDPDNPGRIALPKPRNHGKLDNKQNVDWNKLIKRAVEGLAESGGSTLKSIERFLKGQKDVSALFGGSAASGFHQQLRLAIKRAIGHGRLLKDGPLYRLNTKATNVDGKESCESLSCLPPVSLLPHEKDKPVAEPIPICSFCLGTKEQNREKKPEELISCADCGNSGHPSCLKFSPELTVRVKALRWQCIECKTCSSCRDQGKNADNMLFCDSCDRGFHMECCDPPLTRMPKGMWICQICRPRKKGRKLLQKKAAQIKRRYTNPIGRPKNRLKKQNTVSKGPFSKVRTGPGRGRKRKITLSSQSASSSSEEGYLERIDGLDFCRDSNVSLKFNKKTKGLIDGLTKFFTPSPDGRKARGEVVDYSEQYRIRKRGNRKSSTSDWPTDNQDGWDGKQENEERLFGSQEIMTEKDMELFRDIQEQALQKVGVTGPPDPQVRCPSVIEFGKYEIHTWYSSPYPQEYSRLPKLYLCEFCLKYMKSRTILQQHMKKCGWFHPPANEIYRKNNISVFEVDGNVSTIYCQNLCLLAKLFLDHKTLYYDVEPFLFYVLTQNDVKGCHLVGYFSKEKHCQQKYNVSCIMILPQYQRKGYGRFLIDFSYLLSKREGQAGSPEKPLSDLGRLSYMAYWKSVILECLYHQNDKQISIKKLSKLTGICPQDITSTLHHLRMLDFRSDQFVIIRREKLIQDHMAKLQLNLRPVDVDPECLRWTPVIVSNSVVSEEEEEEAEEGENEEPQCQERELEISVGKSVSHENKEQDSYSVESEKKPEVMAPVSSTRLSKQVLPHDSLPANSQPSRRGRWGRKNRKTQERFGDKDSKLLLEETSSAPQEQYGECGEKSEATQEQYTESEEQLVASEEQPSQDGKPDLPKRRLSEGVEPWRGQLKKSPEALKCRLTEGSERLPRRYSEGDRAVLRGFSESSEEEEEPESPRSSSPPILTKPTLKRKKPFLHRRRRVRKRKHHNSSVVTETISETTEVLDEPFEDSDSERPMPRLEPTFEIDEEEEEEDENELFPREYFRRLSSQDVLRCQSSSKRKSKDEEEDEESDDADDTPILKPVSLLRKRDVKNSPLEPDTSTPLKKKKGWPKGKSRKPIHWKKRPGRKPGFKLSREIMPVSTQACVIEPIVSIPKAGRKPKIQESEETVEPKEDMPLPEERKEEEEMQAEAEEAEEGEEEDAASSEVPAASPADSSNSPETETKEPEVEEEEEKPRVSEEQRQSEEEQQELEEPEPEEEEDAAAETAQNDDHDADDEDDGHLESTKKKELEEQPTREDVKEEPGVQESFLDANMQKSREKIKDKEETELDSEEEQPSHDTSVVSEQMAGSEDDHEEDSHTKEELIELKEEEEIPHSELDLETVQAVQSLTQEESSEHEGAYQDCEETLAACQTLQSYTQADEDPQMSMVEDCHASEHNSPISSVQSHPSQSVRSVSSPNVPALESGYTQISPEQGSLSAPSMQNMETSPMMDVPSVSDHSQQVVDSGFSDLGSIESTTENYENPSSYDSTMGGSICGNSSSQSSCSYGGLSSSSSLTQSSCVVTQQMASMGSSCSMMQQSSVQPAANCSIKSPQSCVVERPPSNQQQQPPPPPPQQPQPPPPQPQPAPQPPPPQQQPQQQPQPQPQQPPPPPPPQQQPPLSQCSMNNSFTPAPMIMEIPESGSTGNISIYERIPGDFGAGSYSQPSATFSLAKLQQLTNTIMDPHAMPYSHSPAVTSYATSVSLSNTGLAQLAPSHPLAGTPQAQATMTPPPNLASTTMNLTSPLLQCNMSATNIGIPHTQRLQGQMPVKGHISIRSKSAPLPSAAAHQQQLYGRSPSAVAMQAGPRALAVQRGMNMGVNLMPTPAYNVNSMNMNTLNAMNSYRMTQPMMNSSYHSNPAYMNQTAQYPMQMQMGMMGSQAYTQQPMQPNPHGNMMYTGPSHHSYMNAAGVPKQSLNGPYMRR
Sequence of PBRM1(5) (Q86U86 653-763 limits assumed): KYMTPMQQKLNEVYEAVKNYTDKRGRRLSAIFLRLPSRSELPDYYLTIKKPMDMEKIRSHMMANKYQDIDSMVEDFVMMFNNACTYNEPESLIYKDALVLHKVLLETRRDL
Sequence of WDR9(2) (Q9NSI6 1313-1418 limits assumed): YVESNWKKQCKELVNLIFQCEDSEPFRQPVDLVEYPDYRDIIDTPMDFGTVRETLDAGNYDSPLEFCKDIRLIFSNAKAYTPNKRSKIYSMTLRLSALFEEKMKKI
Sequence of BRD3(2) (Q15059 306-415 limits assumed): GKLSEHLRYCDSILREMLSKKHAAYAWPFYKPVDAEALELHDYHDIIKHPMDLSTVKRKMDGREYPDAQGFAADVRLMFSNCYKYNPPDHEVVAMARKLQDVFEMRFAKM
Sequence of CECR2 (Q9BXF3 434-538 limits assumed): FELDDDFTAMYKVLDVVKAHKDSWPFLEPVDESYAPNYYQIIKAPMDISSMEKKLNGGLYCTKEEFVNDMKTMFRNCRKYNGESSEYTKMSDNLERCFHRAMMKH
Sequence of BRD2(1) (P25440 74-180 limits assumed): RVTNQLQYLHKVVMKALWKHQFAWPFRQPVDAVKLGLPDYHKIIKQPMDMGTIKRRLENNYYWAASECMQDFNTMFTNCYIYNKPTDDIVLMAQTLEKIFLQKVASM
Sequence of BRD3(1) (Q15059 34-140 limits assumed): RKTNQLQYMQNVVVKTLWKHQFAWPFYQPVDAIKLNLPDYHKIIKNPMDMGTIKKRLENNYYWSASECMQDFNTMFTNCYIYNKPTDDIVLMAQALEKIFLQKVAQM

Tm (C) 10µM, temperature shift [1]: -0.2 Kelvin
activity at 1 µM ([2]; 1µM): 97%
activity at 10 µM ([2]; 10µM): 99%
activity at 1 µM ([3]; 1µM): 100%
activity at 10 µM ([3]; 10µM): 94%
activity at 1 µM ([4]; 1µM): 98%
activity at 10 µM ([4]; 10µM): 103%
activity at 1 µM ([5]; 1µM): 98%
activity at 10 µM ([5]; 10µM): 99%
activity at 1 µM ([6]; 1µM): 105%
activity at 10 µM ([6]; 10µM): 102%
Kd [7]: 28 µM
Kd [8]: 51 µM
Kd [9]: 5.7 µM
Kd [10]: 5.4 µM
Kd [11]: 20 µM
Kd [12]: 2.85 µM
Kd [13, 22]: > 30000 nM
Kd ([13]; KD, BROMOscan Gene Symbol BRD8(2)): > 100000 nM
Kd [14]: 4.2 µM
Kd [15]: 9.6 µM
Kd [16]: 20 µM
Kd [17]: 17 µM
Kd [18]: 0.12 µM
Kd [19]: 5.5 µM
Kd [20, 22]: > 30000 nM
Kd ([20]; KD, PBRM1(5)): > 100000 nM
Kd [21]: 59 µM
SMILES: CCC(=O)N1CCOc2c(cc(-c3ccc(OC)c(OC)c3)cc2OCC2CCCN(C)C2)C1 (stereo not shown) [I-CBP112]
